Assay results reported in US20120088698A1, “WATER IN OIL EMULSION, METHOD FOR THE PRODUCTION THEREOF” (CLARIANT FINANCE (BVI) LIMITED, priority 2009, published 2012).
Where two headings read alike, the source gives them in different places.

Legend:
Skelotonema Costatum [1] = conditions: in vivo
[2] = Biodegradability, OECD 306 test; conditions: OECD 306, 28 days
Skelotonema Costatum [3] = experiment: Ecotoxicology, Protocol ISO 10253; conditions: for EC50: 72 hrs

Row | Molecule | 72 h EC90 (Skelotonema Costatum [1]) [µg/mL] | NOEC@72 h (Skelotonema Costatum [1]) [mg/L] | 48 h NOEC (Artica Tonsa; 48 h) [mg/L] | 48 h LC90 (Artica Tonsa; 48 h, first figure of LC90/100) [µg/mL] | 48 h LC100 (Artica Tonsa; 48 h, second figure of LC90/100) [mg/L] | LC50 (Artica Tonsa; 48 hrs) [µg/mL] | LC5@10 days (Corophium Volulator; 10 days) [mg/kg] | NOEC @ 10 days (Corophium Volulator; in vivo) [mg/kg] | Degradation (biodegradability) [2] [%] | EC50 (Skelotonema Costatum [3]) [µg/mL] | NOEC @ 10 days (Corophium Volulator; 10 days) [mg/kg] | 72 h EC90 (Skelotonema Costatum [3]; 72 h) [µg/mL] | NOEC@72 h (Skelotonema Costatum [3]; 72 h) [mg/L]
1 | CCCCCCCC/C=C\CCCCCCCCN1CC(C(=O)O)CC1=O.NCCO (centres unmarked) [OleylPyCOO-MEA, N-oleyl(pyrrolidine-2-one)-4-carboxylic acid/ethanol amine salt] | 0.58 | 0.32 | 0.30 | 4.2 | 9.0 | 2.8 | 433 | 160 | 69 | 0.44 | – | – | –
2 | N-oleyl(pyrroildine-2-one)-4-carboxylic acid/morpholine distillation residue salt [OleylPyCOO-AmixM] | – | – | – | – | – | – | – | – | – | 1.6 | 524 | 3.0 | 0.56
